Reference: patent publication US20120100568A1, “SERUM-FREE MEDIUM FOR INDUCING PLURIPOTENT STEM CELLS QUICKLY WITH HIGH EFFICIENCY AND METHOD USING THEREOF” (GUANGZHOU INSTITUTES OF BIOMEDICINE AND HEALTH, CHINESE …, priority 2009, published 2012)

Experiments:
[1] = test system: MEF cells; experiment: Effects of medium components, growth factors and serum on iPS reprogramming efficiency (Oct4-GFP FACS); format: cell-based, mouse; details: for effect on the induction of the iPS reprogramming process: added to iPS-SF1 without bFGF, four factors, Oct4-GFP at day 7
Description: The main method for quantifying reprogramming efficiency is FACS analysis for Oct4-GFP positive cells. Based on the results of the timing process, the infected MEF cells were digested with trypsin at days 7 and 9 after infection and then analyzed through FACSCalibur. GFP positive cells received the gates of control signals from PE pathway, and 15,000 events were recorded as a minimum. Cells infected with pMXs-FLAG were used as negative control. In order to verify the efficiency as analyzed by FACS, GFP positive colonies were counted directly under a fluorescence microscope at day 14 after infection. LIF, N2, and bFGF in iPS-SF1 medium as listed in Table 1 were deleted respectively, or N2 and bFGF were added into DMEM+10% KOSR (i.e., containing no growth factor but containing NEAA, L-Glutamine or other ingredients at the same time, called as bKSR hereinafter) medium at concentrations equivalent to that of iPS-SF1 respectively, in order to detect the effects of LIF, N2, bFGF on the iPS reprogramming efficiency of MEF cells transfected with the four factors. […] In order to verify whether other tyrosine kinases and estrogens can play a role in inducing reprogramming of iPS cells in the medium of the present invention, after MEF cells were infected with the four-factor viruses, the following media were used instead, wherein the blank control was iPS-SF1 without bFGF, the experimental group was the blank medium (i.e., iPS-SF1 without bFGF) supplemented with various receptor tyrosine kinases (including basic fibroblast growth factor bFGF, epidermal growth factor EGF, vascular endothelial growth factor VEGF, insulin-like growth factor 2 IGF2, and estradiol), and a serum medium (FBS) was used as the negative control of this experiment.

[2] = test system: MEF cells; experiment: Screening compounds in the iPS process in iPS-SF1 medium (relative GFP efficiency by FACS); format: cell-based, mouse; details: iPS-SF1, four factors, day 7; for effect on the efficiency of iPS reprogramming (relative GFP efficiency): PD0325901 1 μM, CHIR99021 3 μM, SU5402 2 μM; for enhancement of the efficiency of iPS reprogramming (relative GFP efficiency): TSA 20 nM, VPA 1 mM
Description: The main method for quantifying reprogramming efficiency is FACS analysis for Oct4-GFP positive cells. Based on the results of the timing process, the infected MEF cells were digested with trypsin at days 7 and 9 after infection and then analyzed through FACSCalibur. GFP positive cells received the gates of control signals from PE pathway, and 15,000 events were recorded as a minimum. Cells infected with pMXs-FLAG were used as negative control. In order to verify the efficiency as analyzed by FACS, GFP positive colonies were counted directly under a fluorescence microscope at day 14 after infection.
20,000 MEF cells were plated in each well of a twelve-well plate. The medium was iPS-SF1. Then, the cells were infected with viruses as described above in order to be transfected with the four factors. The compounds as shown in FIG. 6 were added into the medium at the following concentrations respectively: PD0325901 (1 μM), CHIR99021 (3 μM), SU5402 (2 μM, EMDbiosciences), Y-27632 (10 μM), vitamin E (25 μM, Sigma), vitamin A (1 μM, Sigma), A83-01 (0.5 μM, EMD), SB203580 (2 μM), Dorspmorphin (3 μM, Sigma), PFF-α (10 μM), TSA (20 nM, Sigma), VPA (1 mM, EMD), JAK inhibitor (0.3 μM, EMD), 5aza-DC (1 μM, Sigma), BIX01294 (1 μM), Bayk8644 (2 μM, EMD).
At day 7 after infection, cells were collected for FACS analysis as described above, and the relative GFP efficiency was measured. […] However, under conditions using the medium of the present invention, the compounds that had been previously reported as favorable to self-renewal of mouse embryonic stem cells, such as PD0325901, CHIR99021, and SU5402 reduced the efficiency of iPS reprogramming.

Molecule	effect on the efficiency of iPS reprogramming (relative GFP efficiency) [2]	effect on the induction of the iPS reprogramming process [1]	further results
basic fibroblast growth factor [bFGF]	–	–	effects on iPS reprogramming efficiency ([1]; component added to bKSR or deleted from iPS-SF1, four factors, day 7): even higher than those of LIF
O=C(NOC[C@H](O)CO)c1ccc(F)c(F)c1Nc1ccc(I)cc1F [PD0325901]	reduced	–	–
insulin-like growth factor 2 [IGF2]	–	comparable effects	–
C[C@]12CC[C@@H]3c4ccc(O)cc4CC[C@H]3[C@@H]1CC[C@@H]2O [estrogen, estradiol]	–	comparable effects	–
CCCC(CCC)C(=O)O [VPA]	–	–	enhancement of the efficiency of iPS reprogramming (relative GFP efficiency) [2]: 100%
CC(/C=C/C(=O)NO)=C\[C@@H](C)C(=O)c1ccc(N(C)C)cc1 [TSA]	–	–	enhancement of the efficiency of iPS reprogramming (relative GFP efficiency) [2]: 100%
epidermal growth factor (NSDSECPLSHDGYCLHDGVCMYIEALDKYACNCVVGYIGERCQYRDLKWWELR; Epidermal growth factor; UniProt P01133 971-1023, looked up) [EGF]	–	comparable effects	–
Cc1c[nH]c(-c2cnc(NCCNc3ccc(C#N)cn3)nc2-c2ccc(Cl)cc2Cl)n1 [CHIR99021]	reduced	–	–
Cc1c[nH]c(/C=C2\C(=O)Nc3ccccc32)c1CCC(=O)O [SU5402]	reduced	–	–
vascular endothelial growth factor [VEGF]	–	comparable effects	–
